Literature values as cited in US20080032891A1, “DEFOLIANT COMPOSITION AND METHOD” (ARYSTA L[…] AMERICA CORPORATION, priority 2006, published 2008).

For `CN(C)C(=O)Nc1ccc(Cl)c(Cl)c1` [diuron, 3-(3,4-dichlorophenyl)-1,1-dimethylurea], the solubility in water is listed as “insoluble in water”.

In the case of `O=C(Nc1ccccc1)Nc1cnns1` [Thidiazuron, 1-phenyl-3-(1,2,3-thiadiazol-5-yl)-urea], the solubility in water is given as “insoluble in water”.
